# How the values were obtained:
# Experiment in all cases: relative viability (nuclei count vs DMSO), 5 days (fraction); higher = more cells survive
# [1] = compound: Cc1ccc2nc(NCCN)c3ncc(C)n3c2c1 + CCNC(=O)c1noc(-c2cc(C(C)C)c(O)cc2O)c1-c1ccc(CN2CCOCC2)cc1 [Luminespib] (partner 0.01 µM)
# Outline: (§1)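 A single step with final 0.05% Triton X-100, 1% formaldehyde and 1 ug/ml Hoechst fixed the cells and stained nuclei 5 days after treatment. Lung cancer cell lines in 1536-well plates had been treated by pin tool the day after seeding with one drug alone or a fixed anchor-drug dose plus five library-drug doses (not always all listed) in √10 steps, and nuclei were counted on 4× images. Relative viability is the ratio of nuclei in treated wells to nuclei in vehicle wells, taken as the median of duplicate plates.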
# [2] = compound: Cc1ccc2nc(NCCN)c3ncc(C)n3c2c1 + N=C(N)NC(=N)NCCc1ccccc1 [Phenformin] (partner 250 µM)
# Outline: as §1
# [3] = compound: Cc1ccc2nc(NCCN)c3ncc(C)n3c2c1 + Nc1ncn([C@H]2C[C@H](O)[C@@H](CO)O2)c(=O)n1 [Decitabine] (partner 2 µM)
# Outline: as §1
# Salubrinal + Linsitinib = compound: O=C(/C=C/c1ccccc1)NC(NC(=S)Nc1cccc2cccnc12)C(Cl)(Cl)Cl [Salubrinal] + C[C@]1(O)C[C@@H](c2nc(-c3ccc4ccc(-c5ccccc5)nc4c3)c3c(N)nccn32)C1 [Linsitinib] (partner 1 µM)
# Outline: as §1
Cell Line,relative viability ([1]; first compound 0.04 µM),relative viability ([1]; first compound 0.1265 µM),relative viability ([1]; first compound 0.4 µM),relative viability ([1]; first compound 1.265 µM),relative viability ([1]; first compound 4 µM),relative viability ([2]; first compound 0.04 µM),relative viability ([2]; first compound 0.1265 µM),relative viability ([2]; first compound 0.4 µM),relative viability ([2]; first compound 1.265 µM),relative viability ([2]; first compound 4 µM),relative viability ([3]; first compound 0.04 µM),relative viability ([3]; first compound 0.1265 µM),relative viability ([3]; first compound 0.4 µM),relative viability ([3]; first compound 1.265 µM),relative viability ([3]; first compound 4 µM),relative viability (Salubrinal + Linsitinib; first compound 0.08 µM),relative viability (Salubrinal + Linsitinib; first compound 0.253 µM),relative viability (Salubrinal + Linsitinib; first compound 0.8 µM),relative viability (Salubrinal + Linsitinib; first compound 2.53 µM),relative viability (Salubrinal + Linsitinib; first compound 8 µM)
COR-L23,0.682,0.644,0.763,0.47,0.625,0.464,0.448,0.45,0.468,0.37,0.455,0.405,0.406,0.488,0.411,1.16,0.676,1.24,1,0.888
COR-L 105,0.921,0.529,0.603,0.57,0.497,0.647,0.555,0.502,0.487,0.425,0.758,0.738,0.722,0.673,0.632,1.04,1.03,0.737,0.953,0.776
EKVX,0.955,0.842,0.886,0.843,0.93,0.25,0.236,0.241,0.239,0.248,0.335,0.35,0.345,0.32,0.28,1.4,0.744,1.15,1.01,0.856
EMC-BAC-2,1.21,1.2,1.19,1.2,1.13,0.518,0.562,0.499,0.536,0.54,0.973,1.01,0.989,1.06,0.966,0.901,0.682,0.856,0.77,0.858
EPLC-272H,0.272,0.253,0.196,0.299,0.159,0.317,0.397,0.383,0.373,0.294,0.386,0.386,0.395,0.341,0.327,1.19,0.832,1.37,1.27,1.05
H3255,0.878,1.01,0.824,0.926,0.76,0.396,0.343,0.396,0.355,0.382,0.594,0.611,0.546,0.69,0.702,0.982,0.905,1.2,1.04,0.974
HARA,0.822,0.753,0.622,0.681,0.681,0.437,0.449,0.388,0.342,0.453,0.492,0.758,0.651,0.419,0.546,1.09,0.905,0.936,0.898,0.99
HCC-15,0.463,0.239,0.258,0.373,0.16,0.464,0.501,0.48,0.429,0.379,0.624,0.693,0.474,0.598,0.522,0.946,0.801,0.952,0.964,0.87
HCC-44,1.07,1.04,1.06,1.05,0.591,0.186,0.247,0.157,0.184,0.146,0.981,0.946,0.923,0.94,1,0.761,0.754,0.731,0.703,0.65
HCC-827,0.741,0.589,0.689,0.58,0.8,0.409,0.402,0.401,0.39,0.384,0.335,0.325,0.333,0.391,0.284,0.992,0.9,1,0.97,0.941
HOP-62,0.916,0.941,0.648,0.965,0.913,0.676,0.643,0.575,0.657,0.653,0.24,0.209,0.241,0.177,0.234,1.07,0.918,1.1,0.977,0.998
LC-2-ad,0.891,0.947,1.13,1.04,0.798,0.637,0.546,0.55,0.547,0.44,0.728,0.728,0.705,0.712,0.768,0.932,0.812,0.912,0.817,0.844
LCLC-97TM1,0.761,0.713,0.752,0.699,0.678,0.38,0.427,0.435,0.465,0.435,0.215,0.21,0.244,0.22,0.236,0.222,0.214,0.221,,0.243
LCLC-103H,0.887,0.927,0.931,0.925,0.858,0.342,0.349,0.332,0.365,0.348,0.71,0.81,0.731,0.717,0.735,1.14,1,1.02,1.22,1.01
LK-2,0.198,0.194,0.182,0.185,0.197,0.358,0.559,0.307,0.325,0.415,0.289,0.393,0.337,0.311,0.297,0.558,0.521,0.762,0.757,0.723
LOU-NH91,0.342,0.31,0.31,0.36,0.318,0.729,0.693,0.756,0.654,0.664,0.814,0.807,0.808,0.827,0.797,1.02,0.949,0.996,0.955,0.93

# — the supplement of paper PMC10307832
